Kd data for two compounds are collected here from paper PMC7233811, “Small molecule inhibits T-cell acute lymphoblastic leukaemia oncogenic interaction through conformational modulation of LMO2” (Oncotarget, 2020).

The target in assay [1] is T1, LMO2 (LIM only protein 2) (Homo sapiens, UniProt P25791).
T1 construct: tandem LIM-domain construct of LMO2 fused to the LDB1^LID (FLINC2); with LDB1 LID (fused)
T1 sequence (P25791 30-153 limits assumed): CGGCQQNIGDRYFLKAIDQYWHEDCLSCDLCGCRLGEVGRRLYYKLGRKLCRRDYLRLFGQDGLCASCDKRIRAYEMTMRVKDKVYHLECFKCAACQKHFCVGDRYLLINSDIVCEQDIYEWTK
T1 sequence (Q86U70 336-375 partner limits assumed): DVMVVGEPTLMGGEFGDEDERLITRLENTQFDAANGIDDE
Briefly: microscale thermophoresis (NT647-labelled protein); supported by STD-NMR, SAXS and HTRF PPI inhibition (IC50 […]). The class given is binding. (In general: In MST a laser heats a spot of the sample, and binding alters the fluorescence response.)

Assay [2] has as its target SCL/E2A complex (Homo sapiens) (UniProt P17542). Briefly: given as Ka. The note with it: cited from earlier work.

SCL/E2A complex (Homo sapiens), sequence (P17542 whole entry, chain 1 of 2): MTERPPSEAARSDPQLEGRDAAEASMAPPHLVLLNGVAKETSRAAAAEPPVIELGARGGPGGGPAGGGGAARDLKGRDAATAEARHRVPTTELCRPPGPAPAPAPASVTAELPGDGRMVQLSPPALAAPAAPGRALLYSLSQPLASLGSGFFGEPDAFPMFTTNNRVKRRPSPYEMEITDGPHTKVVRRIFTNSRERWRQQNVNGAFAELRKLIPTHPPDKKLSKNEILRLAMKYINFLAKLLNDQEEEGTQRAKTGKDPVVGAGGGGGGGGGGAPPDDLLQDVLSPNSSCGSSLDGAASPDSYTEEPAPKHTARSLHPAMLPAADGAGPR
SCL/E2A complex (Homo sapiens), sequence (P15923 whole entry, chain 2 of 2, further chain): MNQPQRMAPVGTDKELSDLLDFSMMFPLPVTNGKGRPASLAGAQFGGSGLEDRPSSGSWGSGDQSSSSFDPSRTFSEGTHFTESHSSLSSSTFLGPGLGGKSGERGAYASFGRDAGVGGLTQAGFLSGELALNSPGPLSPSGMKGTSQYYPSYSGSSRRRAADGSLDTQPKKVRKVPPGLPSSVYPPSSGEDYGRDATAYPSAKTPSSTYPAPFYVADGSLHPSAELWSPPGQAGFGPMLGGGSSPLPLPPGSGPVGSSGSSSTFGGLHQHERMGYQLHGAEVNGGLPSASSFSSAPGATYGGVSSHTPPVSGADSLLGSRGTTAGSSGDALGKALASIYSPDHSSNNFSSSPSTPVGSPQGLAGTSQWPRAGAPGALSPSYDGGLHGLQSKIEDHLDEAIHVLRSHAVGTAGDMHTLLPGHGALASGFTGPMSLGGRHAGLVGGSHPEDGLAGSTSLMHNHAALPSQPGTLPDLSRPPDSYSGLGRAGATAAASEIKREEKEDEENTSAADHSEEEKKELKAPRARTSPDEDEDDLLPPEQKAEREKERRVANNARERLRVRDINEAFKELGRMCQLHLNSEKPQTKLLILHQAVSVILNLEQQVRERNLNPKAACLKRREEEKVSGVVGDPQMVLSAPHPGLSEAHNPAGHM
LMO2, sequence (P25791 whole entry, the tested form may be a part): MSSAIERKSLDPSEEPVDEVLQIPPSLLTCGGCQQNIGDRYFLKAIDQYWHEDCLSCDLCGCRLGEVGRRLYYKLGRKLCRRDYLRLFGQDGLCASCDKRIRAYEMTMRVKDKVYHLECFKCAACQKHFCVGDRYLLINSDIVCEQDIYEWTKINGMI

In assay [1], `Cc1cc(C)cc(C2(C(=O)N3CCOCC(Cc4ccc5nccn5c4)C3)CCOCC2)c1` (centres unmarked) [3K7] displayed a Kd of 1200 nM.
Regarding LMO2 (from UniProt P25791), in assay [2], the Kd was 5.56 nM.

Broadly, the Kd is the equilibrium constant for the complex coming apart.
